Laboratory results as given in paper PMC8070745, “FEN1 Blockade for Platinum Chemo-Sensitization and Synthetic Lethality in Epithelial Ovarian Cancers” (Cancers, 2021).

Legend:
[1] = test system: FEN1 nuclear level in A2780 cells; experiment: Nuclear extract western blot for FEN1, A2780; assay type: cell-based, human; conditions: 5 µM cisplatin, 24 h
Description: Clonogenic assay: In the clonogenic assay (colony formation assays), 32 cells/cm2 were seeded in 6-well plates and left at 37°C in a 5% CO2 atmosphere. Cisplatin (5µM) and/or FEN1i (10µM) and/or Importazole (5 µM, Selleckem, S8446 ) were added at the indicated concentrations and the plates were left at 37 °C in a 5% CO 2 atmosphere for 14 days. Later, the plates were washed with PBS, fixed and stained with a crystal violet, acetic acid and methanol solution and colonies were counted.
Nuclear and cytoplasmic extract: Cells were harvest by trypsinization, washed with PBS and centrifuged at 1000×g for 5min. […] Protein level were then quantified prior to use in western blots.
BCA protein quantification: Protein quantification was done using the Pierce BCA kit assay by Thermo Fisher Scientific. […] The plate was incubated at 37°C during 30 min in the dark and the absorbance was measured by FLUOstar OPTIMA, UK/ Infinite® F50 (UK) microplate reader at 590 nm. […]
Western Blot Analysis: Cells were harvested and lysed in RIPA buffer (R0278, Sigma) with the addition of protease cocktail inhibitor (P8348, Sigma), phosphatase inhibitor cocktail 2 (P5726, Sigma) and phosphatase inhibitor cocktail 3 (P0044, Sigma) and stored at - 20°C. Protein was quantified using BCA Protein Assay kit (23225, Thermo Fisher). […]

[2] = target: T1, Recombinant human FEN1 protein (Homo sapiens, UniProt P39748); experiment: fluorescence-based HTS assay for FEN1 inhibitors; assay type: biochemical; conditions: dilution series on each screening plate
T1 construct: made in house
T1 sequence (P39748 whole entry): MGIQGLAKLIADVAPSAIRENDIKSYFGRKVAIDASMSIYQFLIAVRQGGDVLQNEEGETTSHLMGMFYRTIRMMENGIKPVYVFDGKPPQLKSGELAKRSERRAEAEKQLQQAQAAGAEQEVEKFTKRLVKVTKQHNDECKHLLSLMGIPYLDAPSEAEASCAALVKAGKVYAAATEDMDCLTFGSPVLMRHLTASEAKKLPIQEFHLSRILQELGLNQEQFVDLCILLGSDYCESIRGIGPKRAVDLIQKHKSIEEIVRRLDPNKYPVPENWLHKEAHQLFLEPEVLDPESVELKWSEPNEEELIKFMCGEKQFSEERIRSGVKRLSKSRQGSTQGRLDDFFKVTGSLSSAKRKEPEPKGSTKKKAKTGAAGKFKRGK
Description: reactions containing 50 mM Tris pH 8.0, 10 mM MgCl2, 1 mM DTT and 0.01% Tween-20.
Reactions were incubated at 37 °C for 10 min. To inactivate the enzyme, an equal volume of
stop buffer (90% Formamide, 20 mM EDTA) was added and the mixture was heated at 95 °C
for 10 min. Following separation on a 15% polyacrylamide-urea denaturing gel, substrate
and product bands were visualized by a Typhoon Trio+ Variable Model Imager (Amersham
Bioscience/GE Healthcare, Piscataway, NJ), and the signals were quantified using
ImageQuant software (Molecular Dynamics, GE Healthcare).
Development of HTS assay to isolate novel FEN1 inhibitors: To facilitate the search for
novel FEN1 inhibitors, we have developed a fluorogenic donor/quencher reporter pair to
monitor generation of reaction product in real time (28) (Supplementary Figure S4A ).
Recombinant human FEN1 protein was purified from bacteria as described previously (27).
All oligodeoxynucleotides were purchased from Biosearch Technologies, Inc., (Novato, CA,
USA). The double-stranded DNA substrate containing a double flap region used in the […]
BHQ-2 quencher (which absorbs 6-TAMRA fluorescence when in close proximity) is lost,
and FEN1 activity is measured indirectly as an increase in fluorescence signal (Figure 3).
Kinetic fluorescence data were collected on ViewLux high-throughput CCD imager (Perkin […]
by absence of fluorescence. […]

Row | inhibition pattern of control dilution series in the screen [2] | Compound | nuclear level of FEN1 after cisplatin [1]
1 |  | N.N.[Cl][Pt][Cl] [cisplatin] | significantly decreased
2 | uniform inhibition pattern | Cc1csc2c1c(=O)n(O)c(=O)n2-c1ccccc1 [PTPD, 3-hydroxy-5-methyl-1-phenylthieno [2,3 d]pyrimidine-2,4(1H,3H)-dione] | 
